The data set concerns the target HSD17B13. The settings on record: ASO, HepaRG.

Experimental findings from the OligoGym collection are described below.

After the bases stand the sugars from the 5' end (letter, count) and the backbone: PS all phosphorothioate, else s phosphorothioate and o phosphodiester by linkage. Methylation of C is not given here. e = 2'-O-(2-methoxyethyl) (MOE); k = constrained ethyl (cEt); d = 2'-deoxy (DNA); m = 2'-O-methyl

ATGCAGCTATAGGTAG (sugars k3 d10 k3, PS) yielded a target mRNA inhibition (1 µM) of 41%. On the same count and under the same terms, the value for CGATCCTATATACATC (sugars k3 d10 k3, PS) was 33%. As to CTAATATTGAGGCACT (sugars k3 d10 k3, PS), where the note is “1 µM”, the target mRNA inhibition was found to be 51%.

Turning to “GAGTUGCACCGTTTTG (sugars k3 d1 m1 d8 k3, PS)”, the target mRNA inhibition (1 µM) was found to be 63%. Same read-out and setting: the value for ATAGGAGAGTCTTTCA (sugars k3 d10 k3, PS) was 77%; that for CTGGAGAAGAGTTTAC (sugars k3 d10 k3, PS) was 38%. On the same count and under the same terms, the value for GGGTCCACTTTTGGTG (sugars k3 d10 k3, PS) was 13%; that for TTAAGATGTCCAGGCA (sugars k3 d10 k3, PS) was 35%. The same measure, in the same setting: the value for ATAGTCCATGCAAAAG (sugars k3 d10 k3, PS) was 43%.

For the sequence GAGTTATCTGGTTTGC (sugars k3 d10 k3, PS), the target mRNA inhibition is 0% (0.02 µM); 0% (0.078 µM); 27% (0.313 µM); 84% (1 µM); 68% (1.25 µM); 91% (5 µM). TCGATGGAAGAAGTGC (sugars k3 d10 k3, PS) had a target mRNA inhibition (1 µM) of 34%. Consider TCGAATCATTAAGCTT (sugars k3 d10 k3, PS), for which the target mRNA inhibition (1 µM) was 34%. On the same count and under the same terms, the value for ACAACCCTTAACAAAC (sugars k3 d10 k3, PS) was 26%. In turn, GTCTTGGTAATCTCTT (sugars k3 d10 k3, PS) showed a target mRNA inhibition (1 µM) of 37%. As to TGAGATTACCCCTGGC (sugars k3 d10 k3, PS), for the setting “1 µM”, the target mRNA inhibition amounted to 53%. As for TTAGATTGCATAAGAG (sugars k3 d10 k3, PS), the target mRNA inhibition (1 µM) is 61%. Same read-out and setting: the value for CCACGATTGTTACATC (sugars k3 d10 k3, PS) was 42%. Still for that read-out and setting: the value for GGCATGGCTACAGATT (sugars k3 d10 k3, PS) was 69%; that for ATGGCTTAATTTTCGG (sugars k3 d10 k3, PS) was 33%; that for “CTAAACATCTCTGGGA (sugars k3 d1 m1 d8 k3, PS)” was 32%. Still for that read-out and setting: the value for “GAGTCGGTCACCTTTC (sugars k3 d1 m1 d8 k3, PS)” was 55%; that for TAATCTTGTGCTTGGA (sugars k3 d10 k3, PS) was 54%; that for “TCTTAAGATACCCAGG (sugars k3 d1 m1 d8 k3, PS)” was 51%. Take GATCATTGCAGAAAGA (sugars k3 d10 k3, PS): where the note is “1 µM”, the target mRNA inhibition was determined as 23%. Still for that read-out and setting: the value for AAAATTATGCCTTGTG (sugars k3 d10 k3, PS) was 50%; that for “GACAUGAGGTTTTGAT (sugars k3 d1 m1 d8 k3, PS)” was 34%. As to “AGGTAGCTTTTGTCCA (sugars k3 d9 k3 e1, PS)”, the target mRNA inhibition (1 µM) was 58%. Consider “CATCUTAAGATACCCA (sugars k3 d1 m1 d8 k3, PS)”, for which the target mRNA inhibition (1 µM) is 56%. Turning to TGATTTAGAGAGCGAT (sugars k3 d10 k3, PS), the target mRNA inhibition (1 µM) was found to be 35%. Regarding “CTGAAATTGATACACC (sugars k3 d1 m1 d8 k3, PS)”, the target mRNA inhibition (1 µM) is 71%. GAGTAGTGGAGCCAGA (sugars k3 d10 k3, PS) showed a target mRNA inhibition (1 µM) of 44%.

For the sequence CCAGTAGGTGTGTTTC (sugars k3 d10 k3, PS), the target mRNA inhibition (1 µM) stood at 55%.

In turn, GGTGGTAACGGTGATC (sugars k3 d10 k3, PS) had a target mRNA inhibition (1 µM) of 31%. With “GTGTAAGCTGAGAGTT (sugars kkdddddddddkekek, PS)”, the target mRNA inhibition (1 µM) was 57%. The sequence TAAGTATTCCATCTAT (sugars k3 d10 k3, PS) had a target mRNA inhibition (1 µM) of 31%.

With “CACATATGTGAAGAGC (sugars k3 d9 k3 e1, PS)”, the target mRNA inhibition amounted to 6% (0.02 µM); 9% (0.078 µM); 39% (0.313 µM); 74% (1 µM); 57% (1.25 µM); 78% (5 µM).

For ACCCTTAGGAAAGCTC (sugars k3 d10 k3, PS), under “1 µM”, the target mRNA inhibition came to 52%. With TGGCTTAATGTTCAGT (sugars k3 d10 k3, PS), the target mRNA inhibition (1 µM) turned out to be 50%. With “TTGACTGCTGCTAGTG (sugars k3 d9 k3 e1, PS)”, the target mRNA inhibition (1 µM) worked out at 50%. As to CCATAGGACATGGAGA (sugars k3 d10 k3, PS), the target mRNA inhibition reads like this: (0.02 µM) 7%; (0.078 µM) 12%; (0.313 µM) 31%; (1 µM) 68%; (1.25 µM) 76%; (5 µM) 90%. With CACTTTTGGTGGACTT (sugars k3 d10 k3, PS), under “1 µM”, the target mRNA inhibition was determined as 21%.

CGTCCTAGGAAACAAA (sugars k3 d10 k3, PS) returned a target mRNA inhibition (1 µM) of 45%. Same read-out and setting: the value for “AACAGTCTTAAACCTT (sugars k3 d1 m1 d8 k3, PS)” was 75%.

AGGGAGACCATGCTGC (sugars k3 d10 k3, PS): the target mRNA inhibition is, setting by setting: (0.02 µM) 10%; (0.078 µM) 28%; (0.313 µM) 52%; (1 µM) 79%; (1.25 µM) 59%; (5 µM) 79%.

Turning to “TGCTGCTAGTGCCAAA (sugars kkdddddddddkekek, PS)”, the target mRNA inhibition (1 µM) was 40%.

Where the note is “1 µM”, CTAAACATCTCTGGGA (sugars k3 d10 k3, PS) yielded a target mRNA inhibition of 62%. The sequence “CTGCATTAATGCCACC (sugars k3 d9 k3 e1, PS)” registered a target mRNA inhibition (1 µM) of 40%. Same read-out and setting: the value for GAACAATATGGGATGA (sugars k3 d10 k3, PS) was 26%; that for “GCTACTTGAACAGTCT (sugars k3 d1 m1 d8 k3, PS)” was 82%; that for GTATAGCTGCATTTCT (sugars k3 d10 k3, PS) was 35%. For “TGACAATGGTTGATAG (sugars kkdddddddddkekek, PS)”, the target mRNA inhibition (1 µM) turned out to be 37%. Same read-out and setting: the value for TGAGTAGTGTAAGCTG (sugars k3 d10 k3, PS) was 62%; that for AATAGTCTTCAGCAAA (sugars k3 d10 k3, PS) was 48%. Still for that read-out and setting: the value for GTATTCCATCTATCAG (sugars k3 d10 k3, PS) was 52%; that for CTCTGTGAAAGCCAAC (sugars k3 d10 k3, PS) was 50%; that for “TAGAGTCGGTCACCTT (sugars kkdddddddddkekek, PS)” was 48%. Consider GATTGTTACATCACCC (sugars k3 d10 k3, PS), for which the target mRNA inhibition is, setting by setting: (0.02 µM) 15%; (0.078 µM) 32%; (0.313 µM) 33%; (1 µM) 65%; (1.25 µM) 74%; (5 µM) 91%. In turn, GTCATTTAGAATACGC (sugars k3 d10 k3, PS) gave a target mRNA inhibition (1 µM) of 46%. On the same count and under the same terms, the value for TCATAAAAATCGCTGC (sugars k3 d10 k3, PS) was 26%; that for TCGAAACTATTCATAT (sugars k3 d10 k3, PS) was 64%; that for TCGCCTAAAGGAGATC (sugars k3 d10 k3, PS) was 70%.

As to AGCATATTCATTTGGC (sugars k3 d10 k3, PS), under “1 µM”, the target mRNA inhibition came to 61%. The same measure, in the same setting: the value for “TAGCCAGTACAGTTCC (sugars k3 d1 m1 d8 k3, PS)” was 70%. Consider ACTATGTAATAGGCAG (sugars k3 d10 k3, PS), for which the target mRNA inhibition by setting is: (0.02 µM) 33%; (0.078 µM) 31%; (0.313 µM) 71%; (1 µM) 85%; (1.25 µM) 88%; (5 µM) 94%. Under “1 µM”, AGGCAAGGATACCTGA (sugars k3 d10 k3, PS) registered a target mRNA inhibition of 42%. GACTTCTTACGACTTC (sugars k3 d10 k3, PS) returned a target mRNA inhibition (1 µM) of 38%. On the same count and under the same terms, the value for CGTCCAAAAGTGTCCT (sugars k3 d10 k3, PS) was 53%. As to “TGCCAAACCAATGTTT (sugars k3 d9 k3 e1, PS)”, the target mRNA inhibition (1 µM) came to 43%. The same measure, in the same setting: the value for GTATAGTTATCTTCTC (sugars k3 d10 k3, PS) was 59%; that for “GCAGAAATTCACCTTG (sugars kkdddddddddkekek, PS)” was 53%. On the same count and under the same terms, the value for “TAATACATTAGCAAGC (sugars k3 d1 m1 d8 k3, PS)” was 26%. Still for that read-out and setting: the value for GAGTCATAATTTGCTT (sugars k3 d10 k3, PS) was 57%. For GGAGATATAACATTAC (sugars k3 d10 k3, PS), the target mRNA inhibition came out at 10% (0.02 µM); 10% (0.078 µM); 42% (0.313 µM); 70% (1 µM); 68% (1.25 µM); 88% (5 µM). CATTACATATCAATGC (sugars k3 d10 k3, PS) returned a target mRNA inhibition (1 µM) of 29%. On the same count and under the same terms, the value for “GTATAGTTATCTTCTC (sugars k3 d1 m1 d8 k3, PS)” was 54%; that for GTAAGGTAAAGTCTAA (sugars k3 d10 k3, PS) was 37%. Turning to “TTGAGTAGTGTAAGCT (sugars k3 d1 m1 d8 k3, PS)”, for the setting “1 µM”, the target mRNA inhibition was determined as 35%. In the case of CGATTGTTACATCACC (sugars k3 d10 k3, PS), the target mRNA inhibition (1 µM) worked out at 47%. On to GAAGAGGCTAGGGAAA (sugars k3 d10 k3, PS), for which, under “1 µM”, the target mRNA inhibition is 44%. Take AGCAGAATTGTGAACG (sugars k3 d10 k3, PS): the target mRNA inhibition (1 µM) came out at 67%. As for “TATAGTTATCTTCTCA (sugars k3 d9 k3 e1, PS)”, the target mRNA inhibition (1 µM) stood at 59%.
